Laboratory results from US8329741B2, “Substituted pyrrolidine compounds with central nervous system activity” (The Research Foundation of State University of New York, priority 2007, dated 2012).
“Also recorded” adds a separate entry of the source. Structures can show the parent of a compound that is named as a salt.

Assays:
chakragati (ckr) mice = assay: Screening of candidate compounds based on motor activity in ckr mice; type: in vivo, mouse; settings: for overall biological activity: based on receptor binding data and ckr mouse screening data (FIGS. 1 and 2, ANOVA)
Protocol: To test the effect of compounds, including compounds of the present invention, on CNS function, chakragati (ckr) mice were used as a model. The DC series compounds were tested on motor activity and PPI in ckr mice.
(§1) Stock solutions of the drugs (DC1 to DC20) were dissolved in DMSO, and then diluted to 10 mg/10 mL with distilled water such that the final concentration of DMSO was 0.5%. Each animal received 10 mg/kg of the test drug in a volume of 0.1 mL per 10 g. […] These compounds were sonicated for 30 minutes in DMSO, acidified to pH 4 to 5 by drop-wise addition of 1M HCl, and then suspended in 20% cyclodextrin solution.
Twenty ckr mice (male and female, 3 months old) were randomly assigned to receive test drugs or 0.5% DMSO vehicle. Each drug was tested in 5 mice. Each mouse received up to 5 randomly assigned drugs in random order. Each treatment was separated by a minimum washout period of 3 days. On the day of testing, mice were brought into the behavioral test room and allowed to acclimatize for at least 1 hour. They then received intraperitoneal injections of the 0.1 mL/10 g (10 mg/kg) of the test drug solutions or vehicle.
They were returned to their cage and 20 minutes later they were placed in a 190 mm diameter, 300 mm deep circular recording chamber. Four mice were tested simultaneous in 4 separate chambers. Between each testing session the chambers were wiped down with 70% ethanol and allowed to dry for at least 10 minutes The mice were monitored with an overhead video camera for 15 min. Their behavior was videotaped and simultaneously digitized and tracked (Ethovision Version 2, Noldus). The total distance moved, the velocity of movement, and the time spent moving were calculated.
The data for each parameter were separately analyzed by one-way ANOVA (Analysis of Variance) and post hoc Dunnett's comparisons with the vehicle-treated control group. Tukey's HSD test was applied for post hoc comparisons between groups. p<0.05 was considered statistically significant.

[1] = Preparation of drug solutions (dissolution in DMSO); type: physicochemical; settings: stock solution preparation
Protocol: as §1

5-HT transport sites = biological target: T1, 5-HT transport sites (Rattus norvegicus, UniProt P31652); assay: Displacement of [3H]paroxetine binding in membranes from rat frontal cortex
T1 construct: striatum and frontal cortex dissected from frozen Sprague-Dawley rat brains (Pel-Freez, Rogers, Ark.); tissue Pel-Freez, Rogers, Ark; host or cells: rat frontal cortex membranes (Sprague-Dawley rat brain)
T1 sequence (P31652 whole entry): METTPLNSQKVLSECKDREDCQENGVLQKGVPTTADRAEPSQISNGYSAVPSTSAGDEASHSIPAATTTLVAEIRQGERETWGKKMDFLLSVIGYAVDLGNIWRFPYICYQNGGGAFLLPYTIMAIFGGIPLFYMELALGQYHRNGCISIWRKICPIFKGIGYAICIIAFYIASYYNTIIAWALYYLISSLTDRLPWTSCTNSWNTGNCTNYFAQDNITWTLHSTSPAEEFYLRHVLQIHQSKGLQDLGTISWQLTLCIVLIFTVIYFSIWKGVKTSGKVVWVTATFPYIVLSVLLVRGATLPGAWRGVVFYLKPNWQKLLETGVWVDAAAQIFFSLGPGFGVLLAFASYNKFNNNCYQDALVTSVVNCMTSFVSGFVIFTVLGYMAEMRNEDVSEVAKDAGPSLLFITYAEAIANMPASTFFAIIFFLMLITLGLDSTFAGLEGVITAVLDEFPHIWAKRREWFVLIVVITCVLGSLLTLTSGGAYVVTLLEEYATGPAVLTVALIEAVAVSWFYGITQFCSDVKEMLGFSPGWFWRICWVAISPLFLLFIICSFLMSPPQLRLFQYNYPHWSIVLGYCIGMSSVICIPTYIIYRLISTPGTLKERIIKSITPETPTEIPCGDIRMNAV
Protocol: Binding of substituted pyrrolidine compounds at biogenic amine transporters was determined using striatum and frontal cortex dissected from frozen Sprague-Dawley rat brains (Pel-Freez, Rogers, Ark.). Affinities of the compounds at dopamine (DA) transport sites were determined by displacement of [^125I] 3 beta-(4-iodophenyl)tropan-2 beta-carboxylic acid methyl ester (RTI-55) binding in membranes from rat striatum, using 0.5 mg (original wet weight) of membranes and 10 pM [^125I]RTI-55. Non-specific binding was determined in the presence of 1 μM 2β-propanoyl-3β-(2-naphthyl) tropane (WF-23). Affinities of the compounds at 5-HT transport sites were determined by displacement of [^3H]paroxetine binding in membranes from rat frontal cortex, using 50 mg (original wet weight) of membranes and 0.4 nM [^3H]paroxetine. Non-specific binding was determined in the presence of 10 μM fluoxetine. Binding of the compounds at norepinephrine (NE) transport sites was determined by displacement of [^3H]nisoxetine binding in membranes from rat forebrain, using 0.7 nM [^3H]nisoxetine. Non-specific binding was determined in the presence of 1 μM desipramine.
Potencies in FIGS. 3 and 4 were calculated from displacement curves using 7-10 concentrations of unlabeled compounds, as analyzed by non-linear curve fitting. […]

ckr mouse = assay: Validation of ckr mouse model with antipsychotics (hyperactivity and circling); type: in vivo; settings: concentrations relevant to human clinical use
Description: The ckr mouse was serendipitously created as a result of a transgenic insertional mutation. […] The ckr mouse also appears to show reduced social interactions resembling the social withdrawal that is part of the constellation of negative symptoms of schizophrenia. The mouse also presents lateral ventricular enlargement, which may mirror neuropathological observations in schizophrenia.
The model has been further validated by testing risperidone, haloperidol and pimozide in the ckr mouse. The behavioral output was assayed by measuring the rate of hyperactivity and circling after administration. […] Based on the foregoing, the ckr mouse model is considered to be valid for evaluation of compounds for use in reducing the symptoms of neuropsychiatric disorders in mammals, including humans.

In the case of COC(=O)[C@H](c1ccc2ccccc2c1)[C@@H]1C[C@@H](OC)CN1 [DC16, (R)-methyl 2-((2S,4R)-4-methoxypyrrolidin-2-yl)-2-(naphthalen-2-yl)acetate hydrochloride], the overall biological activity (chakragati (ckr) mice; hydrochloride) is reported as “has biological activity; also recorded: favorable biological activity”, the total distance moved (chakragati (ckr) mice; ckr mice, 10 mg/kg intraperitoneal, 20 minutes after injection, monitored 15 min, vs vehicle (FIG. 1a)) is reported as “trend towards decreased” and the velocity of movement (chakragati (ckr) mice; ckr mice, 10 mg/kg intraperitoneal, 20 minutes after injection, monitored 15 min, vs vehicle (FIG. 1b)) is reported as “trend towards decreased”. The time spent moving (chakragati (ckr) mice; ckr mice, 10 mg/kg intraperitoneal, 20 minutes after injection, monitored 15 min, vs vehicle (FIG. 1c)) was “trend towards a decrease” and the “solubility in DMSO alone” value [1] was “difficult to dissolve in DMSO alone”.

In the case of COC(=O)[C@H](c1ccc(Cl)c(Cl)c1)[C@@H]1C[C@@H](O)CN1 [DC-17, (R)-methyl 2-(3,4-dichlorophenyl)-2-((2S,4R)-4-hydroxypyrrolidin-2-yl)acetate hydrochloride], the overall biological activity (chakragati (ckr) mice) is reported as “favorable biological activity”.

In the case of COC(=O)[C@H](c1ccc2ccccc2c1)[C@@H]1C[C@@H](O)CN1.Cl [HDMP-80, (R)-methyl 2-((2S,4R)-4-hydroxypyrrolidin-2-yl)-2-(naphthalen-2-yl)acetate hydrochloride], the “binding affinity for the serotonin transporter” value (5-HT transport sites) is reported as “high binding affinity”.

In the case of O=C(CCCN1CCC(O)(c2ccc(Cl)cc2)CC1)c1ccc(F)cc1 [haloperidol], the “hyperactivity in ckr mice” value (ckr mouse) is reported as “dose-dependent attenuation”.

In the case of Cc1nc2n(c(=O)c1CCN1CCC(c3noc4cc(F)ccc34)CC1)CCCC2 [risperidone], the “hyperactivity in ckr mice” value (ckr mouse) is reported as “dose-dependent attenuation”.
